Measurements taken from ChEMBL document CHEMBL1156218, “The development and validation of a novel virtual screening cascade protocol to identify potential serotonin 5-HT(7)R antagonists” (Bioorg Med Chem Lett, 2010).

Tests used:
[1] = target: T1, 5-hydroxytryptamine receptor 7 (Homo sapiens, UniProt P34969); assay: Displacement of [3H]5CT from 5HT7 receptor
[2] = target: T1, 5-hydroxytryptamine receptor 7; assay: Displacement of [3H]5CT from 5HT7 receptor at 1 uM
[3] = target: T2, 5-hydroxytryptamine receptor 1A (Homo sapiens, UniProt P08908); assay: Binding affinity at 5HT1A receptor
T2 sequence (P08908 whole entry): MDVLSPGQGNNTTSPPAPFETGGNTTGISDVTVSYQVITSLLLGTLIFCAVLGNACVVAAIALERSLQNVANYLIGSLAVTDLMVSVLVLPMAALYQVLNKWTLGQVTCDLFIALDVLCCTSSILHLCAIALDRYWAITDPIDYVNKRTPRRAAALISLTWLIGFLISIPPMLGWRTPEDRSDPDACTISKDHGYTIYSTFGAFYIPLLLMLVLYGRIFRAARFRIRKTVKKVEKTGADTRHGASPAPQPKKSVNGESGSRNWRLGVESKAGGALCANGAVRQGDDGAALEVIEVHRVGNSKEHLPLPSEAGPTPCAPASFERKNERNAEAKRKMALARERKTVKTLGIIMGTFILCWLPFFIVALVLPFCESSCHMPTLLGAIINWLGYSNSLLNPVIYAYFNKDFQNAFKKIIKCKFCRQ

[4] = target: T1, 5-hydroxytryptamine receptor 7; assay: Displacement of [3H]5CT from 5HT7 receptor at 0.1 uM

T1 sequence (P34969 whole entry): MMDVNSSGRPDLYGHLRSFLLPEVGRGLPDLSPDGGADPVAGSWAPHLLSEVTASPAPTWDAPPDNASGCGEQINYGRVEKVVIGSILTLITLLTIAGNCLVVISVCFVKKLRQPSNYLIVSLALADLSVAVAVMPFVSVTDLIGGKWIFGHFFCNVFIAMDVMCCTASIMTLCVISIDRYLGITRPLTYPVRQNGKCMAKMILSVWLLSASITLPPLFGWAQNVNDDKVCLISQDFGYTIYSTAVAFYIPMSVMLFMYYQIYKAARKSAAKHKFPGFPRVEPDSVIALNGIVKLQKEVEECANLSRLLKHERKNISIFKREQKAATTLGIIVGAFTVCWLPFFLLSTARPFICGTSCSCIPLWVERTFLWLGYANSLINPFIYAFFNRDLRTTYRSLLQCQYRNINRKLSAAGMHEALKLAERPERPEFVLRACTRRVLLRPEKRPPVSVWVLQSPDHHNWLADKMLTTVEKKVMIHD

| Ki ([1]; read-out: Ki) [nM] | Activity [2] [%] | Ki [3] [nM] | Activity [4] [%] | Structure (SMILES) | Ki ([1]; read-out: pKi (converted)) [nM] |
| --- | --- | --- | --- | --- | --- |
|  |  |  |  | O=C1Nc2cccc3c2[C@]1(CCCCN1CC=C(c2ccccc2)CC1)CCC3 | 2.14 |
| 197 | 75 | 8 | 29 | OC(CNCC1COc2ccccc2O1)COc1ccccc1F (centres undefined) |  |
| 265 | 67 | 36 | 23 | OC(CNCC1COc2ccccc2O1)COCc1ccccc1Cl (centres undefined) |  |
